Experimental findings from US5089529A, “Butanol derivatives” (Nippon Shinyaku Co., Ltd., priority 1983, dated 1992) are described below.

One may read the ED50 as the dose at which the effect has come halfway, by size or by number of responders.

The subject of assay [1] is Arrhythmia in Mice Caused by Aconitine. As to the kind of experiment: Action against arrhythmia in mice caused by aconitine. The conditions noted are these: Mus musculus. It counts as in vivo, ddY-Male mice. The method, then: A method by Nwangwu, et al (P.U. Nwangwu, T.L. Holcslow and S.J. Stohs: Arch. int. Pharmacodyn. 229, 219-226, 1977) was partly modified and the experiment was carried out. ddY-Male mice weighing 25 to 30 grams were used. One group was composed of four mice.
Arrhythmia was induced by infusion of aconitine at a concentration of 5 μg/ml in saline into a tail vein at the rate of 0.25 ml/min using a perfusion pump in mice anesthetized with Nembutal. Test drugs were administered orally or intraperitoneally 30 minutes prior to the start of infusion of aconitine. Incidentally, lidocaine was given intraperitoneally 15 minutes prior to administration of aconitine.
The status of arrhythmia was judged by an electrocardiographic recording (lead II) and, when the onset time of the arrhythmia was delayed more than "average time of untreated group plus 2SD", it was judged to have antiarrhythmic action. Then ED50 values were calculated by Weil's method from the effective rate at each dosage level.

For assay [2], the system named is Arrhythmia in Dogs Caused by Digitalis. As to the kind of experiment: Arrhythmia in dogs caused by digitalis (digoxin). In kind it is in vivo, Beagle dogs. The conditions noted are these: anesthetized dogs. An excerpt:
Beagle dogs weighing 10 to 14 kg were used. […] The arrhythmia was judged by an electrocardiographic recording (lead II) and, when there was an appearance of descending or ascending big QRS complex, it was judged that ventricular arrhythmia appeared.

Like-named read-outs stand apart in the source and are kept apart here.

As for `CC(C)CN(CCCC(O)(c1ccccc1)c1ccccc1)CC(C)C` [Example 1, 4-Diisobutylamino-1,1-diphenyl-1-butanol], the ED50 in assay [1] (ip, read-out: ED50, i.p.) stood at 14.9 mg/kg; in assay [1] (po, read-out: ED50, p.o.), 17.7 mg/kg. Also, the “Duration of Action” value in assay [2] (1 mg/kg intravenous) was 400 s; in assay [2] (2 mg/kg intravenous) it was 515 s. In addition, the “Efficacy Ratio” value turned out to be 50.0% in assay [2] (1 mg/kg intravenous) and 62.5% in assay [2] (2 mg/kg intravenous).

Regarding `CC(C)N(CCC(C(N)=O)(c1ccccc1)c1ccccn1)C(C)C` (centres unmarked) [Disopyramide, reference compound], the ED50 in assay [1] (ip, read-out: ED50, i.p.) came to 12.5 mg/kg. The ED50 in assay [1] (po, read-out: ED50, p.o.) stood at 29.7 mg/kg. Moreover, in assay [2] (2 mg/kg intravenous), the “Duration of Action” value turned out to be 365 s and the “Efficacy Ratio” value came out at 57.1%.

With `CCN(CC)CC(=O)Nc1c(C)cccc1C` [Lidocaine, reference compound], the ED50 in assay [1] (ip, read-out: ED50, i.p.) is 35.4 mg/kg. In addition, in assay [2] (2 mg/kg intravenous), the “Duration of Action” value is 350 s and the “Efficacy Ratio” value came out at 50.0%.

In the case of `CC(C)CNCCCC(O)(c1ccccc1)c1ccccc1` [Example 10, 1,1-Diphenyl-4-isobutylamino-1-butanol], the ED50 came out at 11.5 mg/kg in assay [1] (ip, read-out: ED50, i.p.) and 20.3 mg/kg in assay [1] (po, read-out: ED50, p.o.). Further, the “Duration of Action” value in assay [2] (2 mg/kg intravenous) is 500 s. The “Efficacy Ratio” value in assay [2] (2 mg/kg intravenous) is given as 58.7%.
